What was measured:
BaF3 [1] = test: Antiproliferative activity against mouse BaF3 cells harboring EGFR exon 19del mutant incubated for 72 hrs by MTT assay; type: functional, cell-based; settings: BaF3, 72 h
BaF3 [2] = test: cells; settings: Mus musculus, BaF3, 72 h
BaF3 [3] = test: cells; settings: Mus musculus, BaF3, 72 h; remark: listed apart in the source
BaF3 [4] = test: cells; settings: Mus musculus, BaF3, 72 h; remark: listed apart in the source
BaF3 [5] = type: functional, cell-based; settings: Mus musculus, BaF3, 72 h
HCC827 = test: cells; settings: Homo sapiens, HCC827, 72 h
[6] = biological target: T1, Epidermal growth factor receptor (Homo sapiens, UniProt P00533); test: Time-dependent irreversible inhibition of N-terminal GST-tagged wildtype human EGFR cytoplasmic domain (669 to 1210 residues) extracted from Sf21 insect cells assessed as apparent inactivation constant (Ki) incubated for 240 mins in presence of ATP by fluorescence based analysis; settings: read-out: Ki(app)
T1 sequence (P00533 whole entry, the tested form may be a part): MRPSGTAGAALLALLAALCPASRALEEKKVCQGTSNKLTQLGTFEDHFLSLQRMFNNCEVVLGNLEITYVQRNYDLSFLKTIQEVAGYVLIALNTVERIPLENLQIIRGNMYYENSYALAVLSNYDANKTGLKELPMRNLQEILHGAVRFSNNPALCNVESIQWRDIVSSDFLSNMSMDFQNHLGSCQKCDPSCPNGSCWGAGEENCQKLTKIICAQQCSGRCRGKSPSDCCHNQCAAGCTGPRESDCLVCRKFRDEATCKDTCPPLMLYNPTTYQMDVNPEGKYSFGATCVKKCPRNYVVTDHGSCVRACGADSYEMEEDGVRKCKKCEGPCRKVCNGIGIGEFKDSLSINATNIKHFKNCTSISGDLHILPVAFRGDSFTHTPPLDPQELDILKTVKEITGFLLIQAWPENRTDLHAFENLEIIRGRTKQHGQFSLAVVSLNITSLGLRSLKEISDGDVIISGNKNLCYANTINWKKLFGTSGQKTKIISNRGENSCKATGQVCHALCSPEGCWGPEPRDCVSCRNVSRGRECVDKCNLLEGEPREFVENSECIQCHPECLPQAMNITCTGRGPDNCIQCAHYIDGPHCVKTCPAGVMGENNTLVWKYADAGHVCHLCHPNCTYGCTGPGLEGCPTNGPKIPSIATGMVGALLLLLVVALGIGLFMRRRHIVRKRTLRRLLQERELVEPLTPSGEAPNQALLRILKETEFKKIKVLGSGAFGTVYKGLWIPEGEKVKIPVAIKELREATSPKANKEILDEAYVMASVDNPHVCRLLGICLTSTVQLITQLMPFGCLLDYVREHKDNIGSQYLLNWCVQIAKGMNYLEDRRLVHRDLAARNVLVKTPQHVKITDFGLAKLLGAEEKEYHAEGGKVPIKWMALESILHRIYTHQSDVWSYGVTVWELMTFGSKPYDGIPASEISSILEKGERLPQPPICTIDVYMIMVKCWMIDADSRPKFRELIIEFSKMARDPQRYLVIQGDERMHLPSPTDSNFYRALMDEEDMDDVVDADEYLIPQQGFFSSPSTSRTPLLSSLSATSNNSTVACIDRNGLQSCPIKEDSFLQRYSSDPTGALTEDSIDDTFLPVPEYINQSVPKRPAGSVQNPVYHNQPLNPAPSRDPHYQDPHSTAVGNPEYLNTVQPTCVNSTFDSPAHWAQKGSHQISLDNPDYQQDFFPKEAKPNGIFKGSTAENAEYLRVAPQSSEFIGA

[7] = biological target: T2, Epidermal growth factor receptor (Homo sapiens, UniProt P00533, L858R); test: Time-dependent irreversible inhibition of GST-tagged EGFR L858R mutant cytoplasmic domain (669 to 1210 residues) (unknown origin) assessed as apparent inactivation constant (Ki) incubated for 240 mins in presence of ATP by fluorescence based analysis; settings: read-out: Ki(app)
T2 sequence (P00533 25-1210 L858R limits assumed): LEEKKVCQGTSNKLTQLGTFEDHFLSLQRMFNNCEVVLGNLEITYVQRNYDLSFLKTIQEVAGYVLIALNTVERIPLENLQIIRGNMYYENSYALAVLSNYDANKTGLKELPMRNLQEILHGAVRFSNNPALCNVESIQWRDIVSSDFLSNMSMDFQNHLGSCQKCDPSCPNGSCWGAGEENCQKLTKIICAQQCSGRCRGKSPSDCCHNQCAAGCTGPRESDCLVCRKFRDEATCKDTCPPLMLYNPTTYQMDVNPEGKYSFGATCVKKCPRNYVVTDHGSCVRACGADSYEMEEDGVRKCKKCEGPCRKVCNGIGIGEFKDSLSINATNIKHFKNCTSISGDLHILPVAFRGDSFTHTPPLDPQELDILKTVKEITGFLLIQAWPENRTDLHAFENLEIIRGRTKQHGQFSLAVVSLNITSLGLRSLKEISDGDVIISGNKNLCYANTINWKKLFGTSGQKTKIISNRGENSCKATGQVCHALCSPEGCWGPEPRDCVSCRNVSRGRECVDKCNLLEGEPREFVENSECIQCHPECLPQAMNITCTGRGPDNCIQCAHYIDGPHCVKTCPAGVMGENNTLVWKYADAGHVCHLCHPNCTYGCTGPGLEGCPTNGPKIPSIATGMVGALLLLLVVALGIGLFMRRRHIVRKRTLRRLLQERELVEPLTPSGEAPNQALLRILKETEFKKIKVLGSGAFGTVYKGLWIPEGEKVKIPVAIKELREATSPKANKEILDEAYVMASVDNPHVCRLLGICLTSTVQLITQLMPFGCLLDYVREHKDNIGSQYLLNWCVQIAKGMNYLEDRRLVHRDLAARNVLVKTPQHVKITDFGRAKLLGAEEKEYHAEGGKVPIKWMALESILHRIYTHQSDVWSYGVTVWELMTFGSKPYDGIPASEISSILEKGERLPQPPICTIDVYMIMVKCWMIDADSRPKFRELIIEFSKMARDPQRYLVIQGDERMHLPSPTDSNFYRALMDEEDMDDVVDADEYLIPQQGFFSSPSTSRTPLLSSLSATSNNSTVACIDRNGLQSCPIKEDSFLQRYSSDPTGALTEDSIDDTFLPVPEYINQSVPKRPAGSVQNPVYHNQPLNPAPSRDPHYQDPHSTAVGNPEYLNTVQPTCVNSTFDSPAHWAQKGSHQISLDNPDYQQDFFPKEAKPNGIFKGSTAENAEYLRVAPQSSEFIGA

[8] = biological target: T3, Epidermal growth factor receptor (Homo sapiens, UniProt P00533, L858R/T790M); test: Time-dependent irreversible inhibition of GST-tagged EGFR L858R/T790M mutant cytoplasmic domain (669 to 1210 residues) (unknown origin) assessed as apparent inactivation constant (Ki) incubated for 240 mins in presence of ATP by fluorescence based analysis; settings: read-out: Ki(app)
T3 sequence (P00533 25-1210 T790M/L858R limits assumed): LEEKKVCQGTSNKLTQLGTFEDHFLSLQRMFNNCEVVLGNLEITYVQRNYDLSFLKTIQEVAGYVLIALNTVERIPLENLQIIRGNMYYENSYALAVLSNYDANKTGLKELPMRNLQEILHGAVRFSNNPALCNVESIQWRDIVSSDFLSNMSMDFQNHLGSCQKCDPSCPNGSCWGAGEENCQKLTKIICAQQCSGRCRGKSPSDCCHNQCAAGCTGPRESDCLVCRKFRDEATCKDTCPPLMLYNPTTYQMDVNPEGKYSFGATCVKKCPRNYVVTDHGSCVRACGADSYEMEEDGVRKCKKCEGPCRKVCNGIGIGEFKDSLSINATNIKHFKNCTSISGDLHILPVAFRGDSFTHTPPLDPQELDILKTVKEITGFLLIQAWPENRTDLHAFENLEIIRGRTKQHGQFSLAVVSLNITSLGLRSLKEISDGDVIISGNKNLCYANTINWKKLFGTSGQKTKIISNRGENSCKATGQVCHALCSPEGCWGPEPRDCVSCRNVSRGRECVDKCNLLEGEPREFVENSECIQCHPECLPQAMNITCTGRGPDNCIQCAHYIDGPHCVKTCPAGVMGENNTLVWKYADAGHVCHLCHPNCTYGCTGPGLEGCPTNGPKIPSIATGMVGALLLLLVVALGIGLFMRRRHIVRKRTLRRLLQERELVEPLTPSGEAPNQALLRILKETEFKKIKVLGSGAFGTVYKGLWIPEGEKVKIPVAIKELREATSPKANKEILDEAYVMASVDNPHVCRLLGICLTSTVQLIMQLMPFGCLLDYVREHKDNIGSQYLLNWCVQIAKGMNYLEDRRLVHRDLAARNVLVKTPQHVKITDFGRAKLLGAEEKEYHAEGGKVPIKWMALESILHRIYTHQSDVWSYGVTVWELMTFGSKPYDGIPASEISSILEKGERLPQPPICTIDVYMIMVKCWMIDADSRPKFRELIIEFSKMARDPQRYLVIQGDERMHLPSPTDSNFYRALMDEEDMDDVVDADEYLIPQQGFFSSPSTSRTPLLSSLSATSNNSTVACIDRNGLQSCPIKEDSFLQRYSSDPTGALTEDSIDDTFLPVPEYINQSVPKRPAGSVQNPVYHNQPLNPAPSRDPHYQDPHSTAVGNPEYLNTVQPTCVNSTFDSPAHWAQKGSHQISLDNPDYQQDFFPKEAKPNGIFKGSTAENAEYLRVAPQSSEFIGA

[9] = biological target: T4, Epidermal growth factor receptor (Homo sapiens, UniProt P00533, C797S/L858R/T790M); parameters: species or system Sf9
T4 sequence (P00533 25-1210 T790M/C797S/L858R limits assumed): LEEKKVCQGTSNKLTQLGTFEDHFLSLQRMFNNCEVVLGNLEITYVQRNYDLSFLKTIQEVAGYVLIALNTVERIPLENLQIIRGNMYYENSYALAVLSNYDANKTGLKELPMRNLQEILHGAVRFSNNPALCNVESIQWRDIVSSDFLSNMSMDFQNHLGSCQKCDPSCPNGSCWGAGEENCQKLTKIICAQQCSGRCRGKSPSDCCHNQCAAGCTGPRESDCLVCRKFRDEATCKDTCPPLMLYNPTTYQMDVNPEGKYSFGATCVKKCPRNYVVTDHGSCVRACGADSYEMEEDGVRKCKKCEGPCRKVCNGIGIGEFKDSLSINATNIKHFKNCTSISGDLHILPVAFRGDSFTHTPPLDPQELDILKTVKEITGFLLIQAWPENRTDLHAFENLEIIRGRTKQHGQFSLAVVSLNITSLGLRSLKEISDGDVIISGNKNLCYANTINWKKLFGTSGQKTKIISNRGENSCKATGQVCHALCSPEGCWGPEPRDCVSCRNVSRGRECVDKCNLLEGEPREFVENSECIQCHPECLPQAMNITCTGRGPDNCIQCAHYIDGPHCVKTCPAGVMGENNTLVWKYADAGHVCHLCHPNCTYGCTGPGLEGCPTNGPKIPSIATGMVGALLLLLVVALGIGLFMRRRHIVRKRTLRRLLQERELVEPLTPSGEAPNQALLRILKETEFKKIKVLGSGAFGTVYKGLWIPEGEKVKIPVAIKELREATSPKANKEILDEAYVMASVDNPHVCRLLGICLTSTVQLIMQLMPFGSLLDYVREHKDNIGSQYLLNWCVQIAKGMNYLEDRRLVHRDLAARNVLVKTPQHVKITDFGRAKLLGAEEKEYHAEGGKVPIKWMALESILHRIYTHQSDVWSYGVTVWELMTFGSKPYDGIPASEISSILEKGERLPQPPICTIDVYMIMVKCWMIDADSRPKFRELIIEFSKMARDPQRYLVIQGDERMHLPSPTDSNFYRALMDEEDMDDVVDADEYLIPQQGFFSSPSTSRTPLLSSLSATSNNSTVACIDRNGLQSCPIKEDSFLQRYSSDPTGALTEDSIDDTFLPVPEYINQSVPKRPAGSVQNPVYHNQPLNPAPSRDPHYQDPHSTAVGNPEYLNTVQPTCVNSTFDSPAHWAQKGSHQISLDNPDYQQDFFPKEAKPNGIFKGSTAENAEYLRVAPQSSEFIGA

[10] = biological target: T1, Epidermal growth factor receptor; test: Reversible inhibition of wildtype EGFR (696 to 1022 residues) (unknown origin) extracted from baculovirus infected Sf9 insect cells in presence of ATP by HTRF assay
[11] = biological target: T2, Epidermal growth factor receptor; test: Reversible inhibition of EGFR L858R mutant (696 to 1022 residues) (unknown origin) extracted from baculovirus infected Sf9 insect cells in presence of ATP by HTRF assay
[12] = biological target: T3, Epidermal growth factor receptor; test: Reversible inhibition of EGFR L858R/T790M mutant (696 to 1022 residues) (unknown origin) extracted from baculovirus infected Sf9 insect cells in presence of ATP by HTRF assay
[13] = biological target: T4, Epidermal growth factor receptor; parameters: species or system Sf9; remark: listed apart in the source
[14] = Metabolic stability in pooled male human liver microsomes at 150 uM measured after 2 hrs in presence of NADPH regenerating system by LC-MS analysis; type: ADME, Microsome
[15] = Drug metabolism in pooled male human liver microsomes assessed as thioether oxidation mediated metabolite formation at 150 uM measured after 2 hrs by LC-MS analysis; type: ADME, Microsome
cells = settings: Homo sapiens, NCI-H1975, 72 h

Row | Compound | EC50 (BaF3 [1]) [nM] | EC50 (BaF3 [2]) [nM] | EC50 (BaF3 [3]) [nM] | EC50 (BaF3 [4]) [nM] | EC50 (BaF3 [5]) [nM] | also measured
1 | C=CC(=O)Nc1ccc(OC)c(Nc2cc(-c3[nH]c(SC)nc3-c3cccc(NC(=O)c4ccccc4CN4Cc5ccccc5C4=O)c3)ccn2)c1 | 1400 | 170 | 880 | 1700 | > 10000 | Ki [6]: 814 nM; Ki [7]: 234 nM; Ki [8]: 310 nM; IC50 [9]: > 1000 nM
2 | C=CC(=O)Nc1ccc(OC)c(Nc2cc(-c3[nH]c(SC)nc3-c3cccc(NC(=O)c4c(F)cccc4CN4Cc5ccccc5C4=O)c3)ccn2)c1 | 530 | 180 | 1100 | 720 | > 10000 | IC50 [9]: 340 nM
3 | CSc1nc(-c2cccc(NC(=O)c3ccccc3CN3Cc4ccccc4C3=O)c2)c(-c2ccnc(NC(C)=O)c2)[nH]1 | – | – | – | – | – | IC50 [10]: > 1000 nM; IC50 [11]: 120 nM; IC50 [12]: 460 nM; IC50 [13]: 450 nM
4 | C=CC(=O)Nc1ccc(OC)c(Nc2cc(-c3[nH]c(CC)nc3-c3cccc(NC(=O)c4cccc(O)c4CN4Cc5ccccc5C4=O)c3)ccn2)c1 | 1500 | 220 | 590 | 1000 | 2100 | IC50 [9]: 0.91 nM; Stability [14]: Stable; Drug metabolism [15]: metabolite_notdetected; EC50 (cells): 300 nM; EC50 (HCC827): 290 nM
5 | CS(=O)(=O)CCNCc1ccc(-c2ccc3ncnc(Nc4ccc(OCc5cccc(F)c5)c(Cl)c4)c3c2)o1 [LAPATINIB] | – | – | – | – | – | EC50 (cells): > 10000 nM; EC50 (HCC827): > 10000 nM
6 | CCOc1nc(-c2cccc(NC(=O)c3cccc(O)c3CN3Cc4ccccc4C3=O)c2)c(-c2ccnc(NC(C)=O)c2)[nH]1 | > 10000 | > 10000 | > 10000 | > 10000 | – | –
7 | C=CC(=O)Nc1ccc(OC)c(Nc2cc(-c3[nH]c(SC)nc3-c3cccc(NC(=O)c4c(F)ccc(O)c4CN4Cc5ccccc5C4=O)c3)ccn2)c1 | 1400 | 370 | 1200 | 1100 | > 10000 | IC50 [9]: 1.6 nM

Continued, in another order:

Row | EC50 (BaF3 [1]) [nM] | EC50 (BaF3 [2]) [nM] | EC50 (BaF3 [3]) [nM] | EC50 (BaF3 [4]) [nM] | Compound | EC50 (BaF3 [5]) [nM] | also measured
8 | > 10000 | 2900 | > 10000 | > 10000 | CCOc1nc(-c2cccc(NC(=O)c3cccc(O)c3CN3Cc4ccccc4C3=O)c2)c(-c2ccnc(Nc3ccccc3)c2)[nH]1 | – | –
9 | 4000 | > 10000 | > 10000 | > 10000 | CSc1nc(-c2cccc(NC(=O)c3cccc(O)c3CN3Cc4ccccc4C3=O)c2)c(-c2ccnc(Nc3ccccc3)c2)[nH]1 | – | –
10 | 1800 | 1000 | > 10000 | 1100 | CCC(=O)Nc1ccc(OC)c(Nc2cc(-c3[nH]c(SC)nc3-c3cccc(NC(=O)c4cccc(O)c4CN4Cc5ccccc5C4=O)c3)ccn2)c1 | 1700 | EC50 (HCC827): 270 nM
11 | > 10000 | > 10000 | > 10000 | > 10000 | CSc1nc(-c2cccc(NC(=O)c3cccc(O)c3CN3Cc4ccccc4C3=O)c2)c(-c2ccnc(NC(C)=O)c2)[nH]1 | – | –
12 | > 10000 | > 10000 | > 10000 | > 10000 | CSc1nc(-c2cccc(NC(=O)c3cccc(O)c3CN3Cc4ccccc4C3=O)c2)c(-c2ccnc(Nc3ccc(N4CCNCC4)cc3)c2)[nH]1 | > 10000 | –
13 | > 10000 | > 10000 | > 10000 | > 10000 | CCc1nc(-c2cccc(NC(=O)c3cccc(O)c3CN3Cc4ccccc4C3=O)c2)c(-c2ccnc(NC(C)=O)c2)[nH]1 | – | –
14 | – | 3900 | > 10000 | > 10000 | CCc1nc(-c2cccc(NC(=O)c3cccc(O)c3CN3Cc4ccccc4C3=O)c2)c(-c2ccnc(Nc3ccccc3)c2)[nH]1 | > 10000 | –
